Here are results for three compounds from patent US8765677B2 (priority 2009, dated 2014).

Values joined by “and” are separate entries in the source; they are usually repeats but may differ in a detail not shown here. Identical values can stand only once. Where a SMILES comes first, the peptide text is derived from it. A value given as a limit tells only on which side of the number the result lay.

The target in experiment [1] is recombinant N-type (Cav2.2) VGCCs α1B-b/α2δ1/β3 (Rattus norvegicus, UniProt Q02294). As to the kind of experiment: cell-based. It is filed as cell-based.
Sequence of recombinant N-type (Cav2.2) VGCCs α1B-b/α2δ1/β3 (Q02294 whole entry, looked up): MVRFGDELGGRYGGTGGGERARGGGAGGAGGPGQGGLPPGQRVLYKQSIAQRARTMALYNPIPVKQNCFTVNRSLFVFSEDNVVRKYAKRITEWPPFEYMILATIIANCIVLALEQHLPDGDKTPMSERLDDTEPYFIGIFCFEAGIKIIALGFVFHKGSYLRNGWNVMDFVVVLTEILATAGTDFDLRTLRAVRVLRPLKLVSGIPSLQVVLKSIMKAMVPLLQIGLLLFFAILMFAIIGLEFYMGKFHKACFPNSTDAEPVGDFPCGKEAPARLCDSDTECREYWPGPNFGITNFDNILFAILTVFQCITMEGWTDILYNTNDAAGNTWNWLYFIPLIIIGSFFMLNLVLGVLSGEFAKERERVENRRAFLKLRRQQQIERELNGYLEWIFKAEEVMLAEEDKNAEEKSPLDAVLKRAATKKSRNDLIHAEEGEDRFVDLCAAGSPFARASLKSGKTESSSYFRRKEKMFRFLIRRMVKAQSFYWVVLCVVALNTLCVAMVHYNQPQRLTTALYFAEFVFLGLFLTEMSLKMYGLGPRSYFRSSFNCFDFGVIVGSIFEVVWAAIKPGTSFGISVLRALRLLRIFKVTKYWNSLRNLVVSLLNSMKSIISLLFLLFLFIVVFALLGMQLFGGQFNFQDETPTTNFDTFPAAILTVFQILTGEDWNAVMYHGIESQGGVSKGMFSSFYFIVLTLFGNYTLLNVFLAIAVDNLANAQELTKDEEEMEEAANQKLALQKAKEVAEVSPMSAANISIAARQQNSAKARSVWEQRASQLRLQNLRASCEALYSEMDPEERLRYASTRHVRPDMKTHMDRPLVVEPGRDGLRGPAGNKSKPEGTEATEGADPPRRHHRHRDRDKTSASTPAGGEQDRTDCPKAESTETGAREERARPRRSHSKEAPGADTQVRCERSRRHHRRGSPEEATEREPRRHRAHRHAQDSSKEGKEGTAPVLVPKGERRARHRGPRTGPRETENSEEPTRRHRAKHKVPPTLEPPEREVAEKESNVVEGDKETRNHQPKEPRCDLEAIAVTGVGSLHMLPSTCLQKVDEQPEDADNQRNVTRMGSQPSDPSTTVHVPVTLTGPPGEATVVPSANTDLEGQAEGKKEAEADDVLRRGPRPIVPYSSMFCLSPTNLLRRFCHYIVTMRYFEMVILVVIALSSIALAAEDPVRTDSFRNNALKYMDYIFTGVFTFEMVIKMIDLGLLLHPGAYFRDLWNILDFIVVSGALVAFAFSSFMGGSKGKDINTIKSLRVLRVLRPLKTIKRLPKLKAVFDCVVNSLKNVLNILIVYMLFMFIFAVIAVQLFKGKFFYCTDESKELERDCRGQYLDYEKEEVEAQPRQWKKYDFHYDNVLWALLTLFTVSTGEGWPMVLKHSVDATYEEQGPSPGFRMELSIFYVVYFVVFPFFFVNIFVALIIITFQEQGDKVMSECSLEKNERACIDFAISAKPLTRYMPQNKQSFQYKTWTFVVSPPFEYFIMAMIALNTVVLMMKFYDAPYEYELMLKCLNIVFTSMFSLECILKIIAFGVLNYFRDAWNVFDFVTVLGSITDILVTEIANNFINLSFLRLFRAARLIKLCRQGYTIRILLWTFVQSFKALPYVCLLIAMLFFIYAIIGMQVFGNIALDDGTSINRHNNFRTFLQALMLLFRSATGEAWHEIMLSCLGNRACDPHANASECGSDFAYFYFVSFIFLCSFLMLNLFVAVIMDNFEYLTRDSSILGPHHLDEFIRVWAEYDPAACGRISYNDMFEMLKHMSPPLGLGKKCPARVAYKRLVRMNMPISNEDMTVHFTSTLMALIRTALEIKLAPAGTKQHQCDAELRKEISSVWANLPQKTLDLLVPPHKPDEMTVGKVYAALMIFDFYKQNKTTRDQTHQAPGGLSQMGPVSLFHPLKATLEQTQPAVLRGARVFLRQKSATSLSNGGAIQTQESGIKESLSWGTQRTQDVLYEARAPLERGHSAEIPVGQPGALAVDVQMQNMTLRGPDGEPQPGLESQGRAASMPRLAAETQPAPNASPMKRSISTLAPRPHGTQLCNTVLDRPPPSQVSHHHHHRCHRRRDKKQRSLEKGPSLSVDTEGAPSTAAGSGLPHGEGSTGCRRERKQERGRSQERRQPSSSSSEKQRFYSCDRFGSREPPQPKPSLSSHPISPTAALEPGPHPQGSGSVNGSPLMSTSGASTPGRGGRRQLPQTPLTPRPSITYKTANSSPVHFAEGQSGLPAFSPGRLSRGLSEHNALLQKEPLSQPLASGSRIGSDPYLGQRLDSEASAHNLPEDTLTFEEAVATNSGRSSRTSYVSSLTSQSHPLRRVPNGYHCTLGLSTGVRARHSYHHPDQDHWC
Experiment [2] deals with recombinant N-type (Cav2.2) VGCCs α1B-b/β3. Format: cell-based, rat.
Experiment [3] deals with recombinant Cav2.3 α1E (R-type) channels (α/α2δ1/β3) (Rattus norvegicus, UniProt Q07652). Format: cell-based.
Experiment [4] concerns the target recombinant Cav2.1 α1A (P/Q-type) channels (α/α2δ1/β3) (Oryctolagus cuniculus, UniProt P27884). As to the kind of experiment: cell-based. To be noted: read-out: inhibition of Cav2.1 channels. Also noted: species or system rabbit.
The target in experiment [5] is recombinant Cav1.3 α1D (L-type) channels (α/α2δ1/β3) (Rattus norvegicus, UniProt P27732). Format: cell-based.
Experiment [6] has as its target recombinant Cav1.2 α1C (L-type) channels (α/α2δ1/β3) (Oryctolagus cuniculus, UniProt P15381). It is filed as cell-based, rabbit.

Sequence of recombinant Cav2.1 α1A (P/Q-type) channels (α/α2δ1/β3) (P27884 whole entry, looked up): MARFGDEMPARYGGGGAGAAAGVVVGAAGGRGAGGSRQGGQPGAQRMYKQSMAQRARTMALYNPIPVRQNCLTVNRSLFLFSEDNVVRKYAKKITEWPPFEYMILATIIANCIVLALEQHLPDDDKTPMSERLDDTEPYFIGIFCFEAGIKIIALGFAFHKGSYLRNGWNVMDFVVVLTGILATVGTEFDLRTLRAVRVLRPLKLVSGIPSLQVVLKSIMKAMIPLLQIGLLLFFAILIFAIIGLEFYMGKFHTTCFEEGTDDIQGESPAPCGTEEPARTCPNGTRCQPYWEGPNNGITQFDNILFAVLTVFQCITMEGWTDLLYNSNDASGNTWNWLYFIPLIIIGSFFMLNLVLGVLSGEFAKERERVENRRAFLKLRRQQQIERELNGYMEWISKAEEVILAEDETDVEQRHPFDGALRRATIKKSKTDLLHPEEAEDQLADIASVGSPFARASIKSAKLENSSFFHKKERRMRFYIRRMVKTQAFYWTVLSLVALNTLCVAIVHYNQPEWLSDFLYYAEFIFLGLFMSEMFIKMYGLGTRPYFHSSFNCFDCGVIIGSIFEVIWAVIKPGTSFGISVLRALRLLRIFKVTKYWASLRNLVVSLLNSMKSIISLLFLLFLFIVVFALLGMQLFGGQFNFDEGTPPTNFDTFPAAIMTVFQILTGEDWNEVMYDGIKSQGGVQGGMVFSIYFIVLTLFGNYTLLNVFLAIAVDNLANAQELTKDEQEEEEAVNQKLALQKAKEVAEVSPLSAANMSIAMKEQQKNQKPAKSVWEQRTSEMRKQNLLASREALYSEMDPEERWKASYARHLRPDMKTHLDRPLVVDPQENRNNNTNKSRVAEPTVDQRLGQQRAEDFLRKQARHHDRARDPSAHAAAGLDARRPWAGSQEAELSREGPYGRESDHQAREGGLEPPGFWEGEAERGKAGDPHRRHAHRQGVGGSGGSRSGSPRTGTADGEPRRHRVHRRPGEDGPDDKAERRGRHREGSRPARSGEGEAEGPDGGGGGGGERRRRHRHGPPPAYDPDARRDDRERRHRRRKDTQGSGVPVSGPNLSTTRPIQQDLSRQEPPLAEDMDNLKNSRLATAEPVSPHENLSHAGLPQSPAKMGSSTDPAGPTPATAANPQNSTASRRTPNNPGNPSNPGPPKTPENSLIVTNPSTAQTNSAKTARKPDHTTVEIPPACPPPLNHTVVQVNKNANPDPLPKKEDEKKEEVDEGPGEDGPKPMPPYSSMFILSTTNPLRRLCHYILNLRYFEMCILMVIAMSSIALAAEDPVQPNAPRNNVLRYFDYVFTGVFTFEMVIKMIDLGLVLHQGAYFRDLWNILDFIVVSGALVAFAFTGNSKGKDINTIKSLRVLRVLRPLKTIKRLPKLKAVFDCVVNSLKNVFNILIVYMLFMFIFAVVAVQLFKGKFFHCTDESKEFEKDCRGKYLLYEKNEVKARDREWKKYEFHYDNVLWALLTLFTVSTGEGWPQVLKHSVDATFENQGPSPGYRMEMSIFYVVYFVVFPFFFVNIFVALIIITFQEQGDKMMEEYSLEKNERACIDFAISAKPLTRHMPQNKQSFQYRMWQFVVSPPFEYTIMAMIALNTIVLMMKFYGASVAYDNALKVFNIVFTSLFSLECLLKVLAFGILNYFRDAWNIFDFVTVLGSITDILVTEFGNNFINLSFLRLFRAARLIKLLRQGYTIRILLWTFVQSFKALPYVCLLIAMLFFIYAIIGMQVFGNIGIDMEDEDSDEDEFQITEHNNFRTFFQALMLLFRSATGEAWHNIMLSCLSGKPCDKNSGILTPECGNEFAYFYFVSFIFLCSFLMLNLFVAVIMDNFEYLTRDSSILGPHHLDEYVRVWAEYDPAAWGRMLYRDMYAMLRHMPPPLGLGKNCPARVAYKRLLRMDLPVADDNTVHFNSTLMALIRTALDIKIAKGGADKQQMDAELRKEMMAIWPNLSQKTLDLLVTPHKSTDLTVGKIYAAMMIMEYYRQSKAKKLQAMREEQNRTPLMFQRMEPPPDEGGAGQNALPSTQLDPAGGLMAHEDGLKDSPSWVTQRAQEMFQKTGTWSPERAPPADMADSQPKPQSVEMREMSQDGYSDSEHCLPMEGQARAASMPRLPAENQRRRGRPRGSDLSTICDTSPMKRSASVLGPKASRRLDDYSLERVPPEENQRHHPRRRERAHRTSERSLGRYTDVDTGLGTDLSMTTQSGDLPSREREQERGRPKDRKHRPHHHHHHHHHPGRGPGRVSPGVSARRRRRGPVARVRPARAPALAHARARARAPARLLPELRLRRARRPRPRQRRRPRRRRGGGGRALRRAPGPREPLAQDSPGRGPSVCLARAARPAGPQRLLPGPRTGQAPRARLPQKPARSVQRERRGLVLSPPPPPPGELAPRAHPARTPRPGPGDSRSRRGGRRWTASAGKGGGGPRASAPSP

The term Hill slope denotes the slope factor of the fitted curve. Broadly, the IC50 is the concentration that gives 50% inhibition. Take `CSCC[C@@H]1NC(=O)[C@H]([C@@H](C)O)NC(=O)[C@H](CCCCN)NC(=O)[C@H](CCCNC(=N)N)NC(=O)[C@@H]2CSSC[C@@H]3NC(=O)[C@H](CO)NC(=O)CNC(=O)[C@H](CCCNC(=N)N)NC(=O)[C@H](CSSC[C@H](N)C(=O)N[C@@H](CCCCN)C(=O)NCC(=O)N[C@@H](CCCCN)C(=O)NCC(=O)N[C@@H](C)C(=O)N[C@@H](CO)C(=O)N2)NC(=O)[C@H](CSSC[C@@H](C(N)=O)NC(=O)[C@H](CCCNC(=N)N)NC(=O)CNC(=O)[C@H](CO)NC(=O)[C@H](CCCNC(=N)N)NC3=O)NC(=O)[C@H](CC(=O)O)NC(=O)[C@H](Cc2ccc(O)cc2)NC1=O` [CVIB, reference compound] (HELM PEPTIDE1{C.K.G.K.G.A.S.C.R.K.T.M.Y.D.C.C.R.G.S.C.R.S.G.R.C.[am]}$PEPTIDE1,PEPTIDE1,1:R3-16:R3|PEPTIDE1,PEPTIDE1,8:R3-20:R3|PEPTIDE1,PEPTIDE1,15:R3-25:R3$$$V2.0): in experiment [1], the Hill slope was 0.47±0.03 and the IC50 came out at 12 ± 2.3 nM. For the same compound, the IC50 in experiment [2] was determined as 1.6 ± 0.6 nM.
Broadly, the inhibition is how much of the control response was suppressed. As to `C[C@@H]1NC(=O)CNC(=O)[C@H](CCCCN)NC(=O)CNC(=O)[C@H](CCCCN)NC(=O)[C@@H](N)CSSC[C@@H]2NC(=O)[C@@H]3CSSC[C@@H](C(N)=O)NC(=O)[C@H](CCCNC(=N)N)NC(=O)CNC(=O)[C@H](CO)NC(=O)[C@H](CCCNC(=N)N)NC(=O)[C@H](CSSC[C@H](NC(=O)[C@H](CO)NC1=O)C(=O)N[C@@H](CCCNC(=N)N)C(=O)N[C@@H](CCCNC(=N)N)C(=O)N[C@@H]([C@@H](C)O)C(=O)N[C@@H](CO)C(=O)N[C@@H](Cc1ccc(O)cc1)C(=O)N[C@@H](CC(=O)O)C(=O)N3)NC(=O)[C@H](CO)NC(=O)CNC(=O)[C@H]([C@@H](C)O)NC2=O` [CVIE, CKGKGASCRRTSYDCCTGSCRSGRC], in experiment [1], the Hill slope was 0.45±0.03; the IC50 was 2.6 ± 0.5 nM; the “inhibition of depolarization-activated Ba2+ currents (IBa)” value is reported as “potently inhibited”; the “time constant of block (τon)” value was 31.5 ± 2.4 s and 38.5 ± 2.8 s. The “effect on Cav2.3 channels” value in experiment [3] is given as “neither peptide had any effect”. Further, the inhibition at 3 µM in experiment [4] was below 10%. Also, in experiment [5], the “effect on Cav1.3 channels” value is “neither peptide had any effect”. Besides, the 50% inhibitory concentration (IC50) in experiment [2] was 0.12 ± 0.05 nM. In addition, in experiment [6], the “effect on Cav1.2 channels” value is on record as “neither peptide had any effect”.
For the compound `CC(C)C[C@@H]1NC(=O)[C@H](CCCNC(=N)N)NC(=O)[C@@H]2CSSC[C@@H]3NC(=O)[C@H](CO)NC(=O)[C@H](C)NC(=O)CNC(=O)[C@H](CCCCN)NC(=O)CNC(=O)[C@H](CCCCN)NC(=O)[C@@H](N)CSSC[C@H](NC(=O)[C@H](CSSC[C@@H](C(N)=O)NC(=O)[C@H](CCCNC(=N)N)NC(=O)CNC1=O)NC(=O)[C@H](CC(=O)O)NC(=O)[C@H](Cc1ccc(O)cc1)NC(=O)[C@H](CO)NC(=O)[C@H]([C@@H](C)O)NC(=O)[C@H](CCCNC(=N)N)NC(=O)[C@H](CCCNC(=N)N)NC3=O)C(=O)N[C@@H]([C@@H](C)O)C(=O)NCC(=O)N[C@@H](CO)C(=O)N2` [CVIF] (HELM PEPTIDE1{C.K.G.K.G.A.S.C.R.R.T.S.Y.D.C.C.T.G.S.C.R.L.G.R.C.[am]}$PEPTIDE1,PEPTIDE1,1:R3-16:R3|PEPTIDE1,PEPTIDE1,8:R3-20:R3|PEPTIDE1,PEPTIDE1,15:R3-25:R3$$$V2.0), in experiment [1], the Hill slope turned out to be 0.51±0.04 and the “inhibition of depolarization-activated Ba2+ currents (IBa)” value is “potently inhibited”. The “effect on Cav2.3 channels” value in experiment [3] was “neither peptide had any effect”. For the same compound, the inhibition at 3 µM in experiment [4] is below 10%. Moreover, the “effect on Cav1.3 channels” value in experiment [5] is “neither peptide had any effect”. The 50% inhibitory concentration (IC50) in experiment [2] was 0.1 ± 0.07 nM. In addition, the “effect on Cav1.2 channels” value in experiment [6] was “neither peptide had any effect”.
